For one data set, the target named is Cytochrome P450 2D6 (Homo sapiens, UniProt P10635). Further: in other assays of this panel Not Active means under 50% inhibition at 10 µM.
For a further data set, the target named is T1, Calcitonin receptor (Homo sapiens, UniProt P30988). Further: in other assays of this panel Not Active means under 50% inhibition at 10 µM.
T1 sequence (P30988 whole entry): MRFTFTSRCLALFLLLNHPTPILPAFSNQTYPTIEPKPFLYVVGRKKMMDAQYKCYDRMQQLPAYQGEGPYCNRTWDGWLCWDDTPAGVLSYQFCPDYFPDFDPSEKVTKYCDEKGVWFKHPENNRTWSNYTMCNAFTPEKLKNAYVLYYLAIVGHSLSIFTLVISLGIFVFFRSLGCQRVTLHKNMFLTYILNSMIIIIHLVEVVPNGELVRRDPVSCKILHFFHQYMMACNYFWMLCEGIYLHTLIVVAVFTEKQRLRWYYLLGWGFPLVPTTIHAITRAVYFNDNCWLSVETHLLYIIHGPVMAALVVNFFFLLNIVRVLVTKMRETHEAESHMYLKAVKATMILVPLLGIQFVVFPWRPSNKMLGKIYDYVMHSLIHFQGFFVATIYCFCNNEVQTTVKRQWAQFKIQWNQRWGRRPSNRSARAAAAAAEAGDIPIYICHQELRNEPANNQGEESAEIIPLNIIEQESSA
Type of data set: cell membranes, Membrane. The conditions noted are these: t47d.

The next data set has as its target T2, Androgen receptor (Rattus norvegicus, UniProt P15207). Further: in other assays of this panel Not Active means under 50% inhibition at 10 µM.
T2 sequence (P15207 whole entry): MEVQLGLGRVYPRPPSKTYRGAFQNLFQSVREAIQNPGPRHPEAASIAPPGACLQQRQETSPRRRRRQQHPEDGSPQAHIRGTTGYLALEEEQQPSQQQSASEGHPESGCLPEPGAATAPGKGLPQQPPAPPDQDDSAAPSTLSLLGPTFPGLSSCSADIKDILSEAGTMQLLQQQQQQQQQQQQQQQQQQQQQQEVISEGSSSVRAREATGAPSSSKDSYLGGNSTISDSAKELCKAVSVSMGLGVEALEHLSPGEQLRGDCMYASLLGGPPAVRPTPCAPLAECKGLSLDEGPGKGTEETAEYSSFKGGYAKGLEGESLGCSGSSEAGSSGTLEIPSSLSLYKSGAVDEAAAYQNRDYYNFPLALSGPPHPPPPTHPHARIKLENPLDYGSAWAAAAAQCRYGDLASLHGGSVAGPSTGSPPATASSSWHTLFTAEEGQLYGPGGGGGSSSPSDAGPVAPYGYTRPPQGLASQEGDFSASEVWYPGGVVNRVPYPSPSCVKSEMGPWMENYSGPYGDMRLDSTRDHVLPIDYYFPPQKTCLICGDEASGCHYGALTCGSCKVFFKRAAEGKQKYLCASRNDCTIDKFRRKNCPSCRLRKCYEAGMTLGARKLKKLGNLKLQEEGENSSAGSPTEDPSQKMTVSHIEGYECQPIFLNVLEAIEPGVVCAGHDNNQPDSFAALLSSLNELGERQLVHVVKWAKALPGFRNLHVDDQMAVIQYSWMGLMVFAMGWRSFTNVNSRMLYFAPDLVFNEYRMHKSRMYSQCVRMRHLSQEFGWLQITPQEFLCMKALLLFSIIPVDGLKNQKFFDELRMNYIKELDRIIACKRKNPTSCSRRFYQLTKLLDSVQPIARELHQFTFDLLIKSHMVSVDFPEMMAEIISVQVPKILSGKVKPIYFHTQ

In a further data set the target is Cytochrome P450 2E1 (Homo sapiens, UniProt P05181). Particulars: bti-tn-5b1-4. Further: in other assays of this panel Not Active means under 50% inhibition at 10 µM.
Chain of Cytochrome P450 2E1 (P05181 whole entry): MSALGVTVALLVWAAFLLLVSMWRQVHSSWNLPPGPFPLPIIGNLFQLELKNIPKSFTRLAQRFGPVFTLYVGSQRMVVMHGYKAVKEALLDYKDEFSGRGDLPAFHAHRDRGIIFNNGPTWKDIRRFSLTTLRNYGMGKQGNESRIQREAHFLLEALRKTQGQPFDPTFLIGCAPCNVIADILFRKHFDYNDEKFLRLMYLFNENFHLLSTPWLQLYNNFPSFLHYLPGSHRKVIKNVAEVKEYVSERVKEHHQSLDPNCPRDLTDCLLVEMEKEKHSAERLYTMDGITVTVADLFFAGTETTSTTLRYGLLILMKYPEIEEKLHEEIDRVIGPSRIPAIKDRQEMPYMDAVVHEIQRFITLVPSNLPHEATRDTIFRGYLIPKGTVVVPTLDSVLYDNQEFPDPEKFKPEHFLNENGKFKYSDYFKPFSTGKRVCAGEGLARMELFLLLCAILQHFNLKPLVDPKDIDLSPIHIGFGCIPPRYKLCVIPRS
Data set [1] in a line: DRUGMATRIX: Glutamate, Kainate radioligand binding (ligand: [3H] Kainic acid). Type of data set: cell membranes, Rattus norvegicus, Wistar, Brain, Membrane. Particulars: Not Active = under 50% inhibition at 10 µM.
Data set [2] has as its target Mitogen-activated protein kinase 1 (Homo sapiens, UniProt P28482). Description: DRUGMATRIX: Protein Serine/Threonine Kinase, ERK2 enzyme inhibition (substrate: Myelin Basic Protein). Set-up: species or system Escherichia coli. The conditions noted are these: Not Active = under 50% inhibition at 10 µM.
Another data set concerns the target Cannabinoid receptor 1 (Homo sapiens, UniProt P21554). It is filed as cell membranes, Membrane. Particulars: chem-1. Further: in other assays of this panel Not Active means under 50% inhibition at 10 µM.
For a further data set, the target named is Substance-P receptor (Homo sapiens, UniProt P25103). It is filed as cell membranes, CHO, Membrane. The conditions noted are these: cho. Further: in other assays of this panel Not Active means under 50% inhibition at 10 µM.
Chain of Substance-P receptor (P25103 whole entry): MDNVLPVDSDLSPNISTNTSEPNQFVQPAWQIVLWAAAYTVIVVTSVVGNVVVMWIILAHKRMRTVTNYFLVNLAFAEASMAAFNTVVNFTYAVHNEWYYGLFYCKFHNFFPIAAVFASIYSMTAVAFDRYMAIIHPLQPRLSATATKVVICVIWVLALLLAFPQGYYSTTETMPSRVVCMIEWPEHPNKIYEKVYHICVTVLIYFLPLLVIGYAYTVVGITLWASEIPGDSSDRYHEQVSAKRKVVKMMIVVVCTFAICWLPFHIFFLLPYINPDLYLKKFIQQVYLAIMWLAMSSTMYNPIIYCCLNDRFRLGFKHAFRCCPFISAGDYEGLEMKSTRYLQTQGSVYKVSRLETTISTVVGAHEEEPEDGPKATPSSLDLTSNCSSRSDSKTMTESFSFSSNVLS

Chain of Cytochrome P450 2D6 (P10635 whole entry): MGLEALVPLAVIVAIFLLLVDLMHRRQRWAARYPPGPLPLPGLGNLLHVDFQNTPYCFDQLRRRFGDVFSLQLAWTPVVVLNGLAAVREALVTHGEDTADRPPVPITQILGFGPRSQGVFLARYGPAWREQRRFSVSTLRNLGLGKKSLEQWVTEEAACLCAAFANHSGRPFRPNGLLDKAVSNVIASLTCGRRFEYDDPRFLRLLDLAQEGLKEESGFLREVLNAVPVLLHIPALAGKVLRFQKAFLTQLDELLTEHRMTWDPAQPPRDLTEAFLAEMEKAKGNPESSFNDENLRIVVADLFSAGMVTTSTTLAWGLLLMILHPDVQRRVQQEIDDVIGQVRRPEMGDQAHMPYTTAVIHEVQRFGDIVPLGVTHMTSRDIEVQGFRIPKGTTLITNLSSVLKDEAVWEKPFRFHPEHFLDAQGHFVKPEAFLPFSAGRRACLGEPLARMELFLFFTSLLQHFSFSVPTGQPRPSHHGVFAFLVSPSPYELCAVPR
Chain of Cannabinoid receptor 1 (P21554 whole entry): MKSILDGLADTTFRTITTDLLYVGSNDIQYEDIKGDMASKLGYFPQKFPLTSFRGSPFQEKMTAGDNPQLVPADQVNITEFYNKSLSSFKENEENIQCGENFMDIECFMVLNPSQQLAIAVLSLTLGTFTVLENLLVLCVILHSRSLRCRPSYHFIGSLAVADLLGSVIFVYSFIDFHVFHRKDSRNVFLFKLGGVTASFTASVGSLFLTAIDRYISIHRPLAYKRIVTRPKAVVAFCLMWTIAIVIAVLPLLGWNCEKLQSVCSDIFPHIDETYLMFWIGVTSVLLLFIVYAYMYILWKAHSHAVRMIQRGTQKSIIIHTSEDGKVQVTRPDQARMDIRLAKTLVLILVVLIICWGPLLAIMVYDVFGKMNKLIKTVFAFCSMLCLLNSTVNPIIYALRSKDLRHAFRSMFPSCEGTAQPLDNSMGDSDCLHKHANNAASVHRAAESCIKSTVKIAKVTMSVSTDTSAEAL
Chain of Mitogen-activated protein kinase 1 (P28482 whole entry): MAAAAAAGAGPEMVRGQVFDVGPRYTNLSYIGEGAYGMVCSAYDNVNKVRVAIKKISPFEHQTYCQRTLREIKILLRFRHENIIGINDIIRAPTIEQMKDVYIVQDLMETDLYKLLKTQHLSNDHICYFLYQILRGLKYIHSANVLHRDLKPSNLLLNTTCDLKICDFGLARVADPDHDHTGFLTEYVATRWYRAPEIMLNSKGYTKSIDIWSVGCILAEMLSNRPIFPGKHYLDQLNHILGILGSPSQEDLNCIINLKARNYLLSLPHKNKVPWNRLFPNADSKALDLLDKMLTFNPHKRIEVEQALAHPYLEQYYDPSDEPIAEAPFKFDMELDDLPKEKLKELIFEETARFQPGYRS

As for `Cc1ccc(-c2cc(C(F)(F)F)nn2-c2ccc(S(N)(=O)=O)cc2)cc1` [CELECOXIB], the half-maximal inhibitory concentration (IC50) was 1000 nM at Cytochrome P450 2D6; “Not Active” on Calcitonin receptor; “Not Active” on Androgen receptor; “Not Active” against Cytochrome P450 2E1; “Not Active” in data set [1]; “Not Active” in data set [2]. Further, the IC50 result against Cannabinoid receptor 1 and at Substance-P receptor was “Not Active” in each case. Also, the Ki result (at Cytochrome P450 2E1; in data set [1]) was “Not Active” throughout.

`CCCN1C[C@H](CSC)C[C@@H]2c3cccc4[nH]cc(c34)C[C@H]21` [PERGOLIDE]: the IC50 against Cytochrome P450 2D6 was 200 nM; on Calcitonin receptor it was “Not Active”; against Cytochrome P450 2E1, “Not Active”; in data set [1] it was “Not Active”; in data set [2] it was “Not Active”; against Cannabinoid receptor 1, “Not Active”. Moreover, the concentration for half-maximal inhibition (IC50) result against Substance-P receptor was “Not Active”. Also, the Ki entry (at Cytochrome P450 2E1; in data set [1]) was “Not Active” each time.

Regarding `Cc1ccc(N(CC2=NCCN2)c2cccc(O)c2)cc1` [PHENTOLAMINE], the 50% inhibitory concentration (IC50) against Cytochrome P450 2D6 is 10000 nM; at Calcitonin receptor, “Not Active”; at Cytochrome P450 2E1, “Not Active”; in data set [1], “Not Active”; in data set [2], “Not Active”; at Cannabinoid receptor 1, “Not Active”. Moreover, on Substance-P receptor, the IC50 result was “Not Active”. Moreover, the Ki result (on Cytochrome P450 2E1; in data set [1]) was “Not Active” throughout.

With `CN(C)C(=O)Oc1cc(OC(=O)N(C)C)cc(C(O)CNC(C)(C)C)c1` (stereo not drawn) [BAMBUTEROL], the 50% inhibitory concentration (IC50) against Cytochrome P450 2D6 was 2000 nM; on Calcitonin receptor, “Not Active”; against Androgen receptor, “Not Active”; on Cytochrome P450 2E1, “Not Active”; in data set [1] it was “Not Active”; in data set [2], “Not Active”. Moreover, the IC50 result against Cannabinoid receptor 1 and against Substance-P receptor was “Not Active” each time. For the same compound, the Ki result (on Cytochrome P450 2E1; in data set [1]) was “Not Active” each time.

Consider `C[C@H]1O[C@@H](O[C@H]2[C@@H](O)C[C@H](O[C@H]3[C@@H](O)C[C@H](O[C@H]4CC[C@@]5(C)[C@H](CC[C@@H]6[C@@H]5C[C@@H](O)[C@]5(C)[C@@H](C7=CC(=O)OC7)CC[C@]65O)C4)O[C@@H]3C)O[C@@H]2C)C[C@H](O)[C@@H]1O` [DIGOXIN], for which the half-maximal inhibitory concentration (IC50) entry (at Calcitonin receptor; at Androgen receptor; against Cytochrome P450 2E1; in data set [1]; in data set [2]; at Cannabinoid receptor 1) was “Not Active” each time. In addition, the half-inhibitory concentration (IC50) entry against Substance-P receptor is on record as “Not Active”. Besides, the Ki result (on Cytochrome P450 2E1; in data set [1]) was “Not Active” in each case.

With `O=c1oc2ccccc2c(O)c1Cc1c(O)c2ccccc2oc1=O` [DICUMAROL], the IC50 entry on Calcitonin receptor was “Not Active”; against Androgen receptor, “Not Active”; at Cytochrome P450 2E1 it was “Not Active”; in data set [1], “Not Active”; in data set [2] (read-out: IC50), 4430 nM; on Cannabinoid receptor 1 it was “Not Active”. Further, the concentration for half-maximal inhibition (IC50) result against Substance-P receptor is on record as “Not Active”. Besides, the Ki result (at Cytochrome P450 2E1; in data set [1]) was “Not Active” each time.

Turning to `CCC1(c2ccc(N)cc2)CCC(=O)NC1=O` (stereo not drawn) [AMINOGLUTETHIMIDE], the IC50 result (at Calcitonin receptor; at Androgen receptor; against Cytochrome P450 2E1; in data set [1]; in data set [2]; against Cannabinoid receptor 1) was “Not Active” throughout. Moreover, on Substance-P receptor, the half-inhibitory concentration (IC50) result is “Not Active”. In addition, the Ki entry (at Cytochrome P450 2E1; in data set [1]) was “Not Active” in each case.

On to `C=C(C)C1(O)OC(=O)C=C1OC` (stereo not drawn) [PENICILLIC ACID], for which the half-maximal inhibitory concentration (IC50) entry (at Calcitonin receptor; on Androgen receptor; against Cytochrome P450 2E1; in data set [1]; in data set [2]; at Cannabinoid receptor 1) was “Not Active” each time. Further, at Substance-P receptor, the IC50 result was “Not Active”. Moreover, the Ki result (at Cytochrome P450 2E1; in data set [1]) was “Not Active” in each case.

As for `C1CCC(C(CC2CCCCN2)C2CCCCC2)CC1` (stereo not drawn) [PERHEXILINE], the half-inhibitory concentration (IC50) against Cytochrome P450 2D6 is 941 nM; at Calcitonin receptor, “Not Active”; on Androgen receptor it was “Not Active”; against Cytochrome P450 2E1, “Not Active”; in data set [1], “Not Active”; in data set [2], “Not Active”. Moreover, the IC50 result against Cannabinoid receptor 1 and at Substance-P receptor was “Not Active” throughout. Besides, the Ki entry (at Cytochrome P450 2E1; in data set [1]) was “Not Active” in each case.

For the compound `CC(C)CN(C[C@@H](O)[C@H](Cc1ccccc1)NC(=O)O[C@H]1CCOC1)S(=O)(=O)c1ccc(N)cc1`, the half-inhibitory concentration (IC50) result (on Calcitonin receptor; against Androgen receptor; at Cytochrome P450 2E1; in data set [1]; in data set [2]; against Cannabinoid receptor 1) was “Not Active” in each case. Also, on Substance-P receptor, the IC50 result is given as “Not Active”. Besides, the Ki result (on Cytochrome P450 2E1; in data set [1]) was “Not Active” in each case.

Turning to `CNCCCN1c2ccccc2CCc2ccccc21` [DESIPRAMINE], the 50% inhibitory concentration (IC50) result (at Calcitonin receptor; against Androgen receptor; against Cytochrome P450 2E1; in data set [1]; in data set [2]; against Cannabinoid receptor 1) was “Not Active” throughout. The IC50 entry at Substance-P receptor was “Not Active”. Also, the Ki entry (on Cytochrome P450 2E1; in data set [1]) was “Not Active” throughout.

Turning to CADMIUM ACETATE, the half-maximal inhibitory concentration (IC50) result (on Calcitonin receptor; against Androgen receptor; against Cytochrome P450 2E1; in data set [1]; in data set [2]; at Cannabinoid receptor 1) was “Not Active” each time. For the same compound, the IC50 result against Substance-P receptor was “Not Active”. Further, the Ki result (on Calcitonin receptor; at Androgen receptor; at Cytochrome P450 2E1; in data set [1]; in data set [2]; at Cannabinoid receptor 1) was “Not Active” in each case. The Ki entry on Substance-P receptor is given as “Not Active”.

`CN(Cc1ccc(C(C)(C)C)cc1)Cc1cccc2ccccc12` [BUTENAFINE]: the IC50 against Cytochrome P450 2D6 is 300 nM; on Calcitonin receptor, “Not Active”; on Cytochrome P450 2E1, “Not Active”; in data set [1], “Not Active”; in data set [2], “Not Active”; on Cannabinoid receptor 1, “Not Active”. The half-maximal inhibitory concentration (IC50) entry at Substance-P receptor was “Not Active”. The Ki entry (at Cytochrome P450 2E1; in data set [1]) was “Not Active” each time.

Consider `CC1=C2C(=CO[C@H](C)[C@H]2C)C(O)=C(C(=O)O)C1=O` [CITRININ], for which the IC50 entry (at Calcitonin receptor; against Androgen receptor; against Cytochrome P450 2E1; in data set [1]; in data set [2]; against Cannabinoid receptor 1) was “Not Active” each time. Besides, at Substance-P receptor, the 50% inhibitory concentration (IC50) result is recorded as “Not Active”. Further, the Ki result (at Cytochrome P450 2E1; in data set [1]) was “Not Active” in each case.

As for `CCCCN1CCCC[C@H]1C(=O)Nc1c(C)cccc1C` [LEVOBUPIVACAINE], the IC50 against Cytochrome P450 2D6 is 196 nM; at Calcitonin receptor, “Not Active”; on Androgen receptor, “Not Active”; at Cytochrome P450 2E1, “Not Active”; in data set [1] it was “Not Active”; in data set [2], “Not Active”. The 50% inhibitory concentration (IC50) entry against Cannabinoid receptor 1 and on Substance-P receptor was “Not Active” in each case. Further, the Ki result (on Cytochrome P450 2E1; in data set [1]) was “Not Active” each time.

For `C[C@H](CS)C(=O)N1CCC[C@H]1C(=O)O` [CAPTOPRIL], the IC50 entry (on Calcitonin receptor; at Androgen receptor; at Cytochrome P450 2E1; in data set [1]; in data set [2]; on Cannabinoid receptor 1) was “Not Active” each time. The half-maximal inhibitory concentration (IC50) result against Substance-P receptor is on record as “Not Active”. For the same compound, the Ki entry (at Cytochrome P450 2E1; in data set [1]) was “Not Active” throughout.
